Data set [1] can be described thus: Loss of Compound 1 to dispensing kit components (syringe, silicone tube, hard tube, filter), evaluated by HPLC. Particulars: 7% v/v ethanol. In kind it is physicochemical. The method, then: Solutions were prepared containing 7% v/v ethanol in 0.01 M sodium phosphate buffer at pH 7.4, 75 μg of Compound 1 and either (i) 12% v/v propylene glycol (PG) or (ii) 10% v/v polyethylene glycol 400 (PEG 400). Percentage loss of Compound 1 to various components of a dispensing kit was evaluated by High Performance Liquid Chromatography (HPLC) in the following experiments: […]

The nature of data set [2]: Compound 1 adsorption (loss) to various silicone tubings with polysorbate 80. In kind it is physicochemical. The method, then: Solutions were prepared containing 7% v/v ethanol in 10 mM sodium phosphate buffer at pH 7.4, 75 μg of Compound 1 and selected v/v % amounts of polysorbate 80. Various silicone tubing types were tested as follows: [table] The percentage loss of Compound 1 onto the tubing was calculated in each experiment. Fluorine was assayed before and after the passage through tubing, and the results were as follows: […]

The values below come from patent US8916131B2, “Radiopharmaceutical composition” (GE Healthcare Limited, priority 2007, dated 2014).

Each structure is given as a SMILES string.

On to `CNc1ccc(-c2nc3ccc(O)cc3s2)cc1[18F]` [Compound 1, 2-[3-[^18F]fluoro-4-(methylamino)phenyl]-6-hydroxy-benzothiazole], for which the “% loss” value in data set [1] (10% v/v PEG 400, filter, 11 sec, 9.5 ml, 0.01 M phosphate pH 7.4) is given as 51%; in data set [1] (10% v/v PEG 400, hard tube, 5 min 4 sec, ~2-2.5 ml, 0.01 M phosphate pH 7.4) it was 4%; in data set [1] (10% v/v PEG 400, silicone tube, 2 min 2 sec, ~1-1.5 ml, 0.01 M phosphate pH 7.4) it was 8%; in data set [1] (10% v/v PEG 400, syringe, 1 min 1 sec, 9.5 ml, 0.01 M phosphate pH 7.4), 1%; in data set [1] (12% v/v PG, filter, 10 sec, 9.5 ml, 0.01 M phosphate pH 7.4), 87%; in data set [1] (12% v/v PG, hard tube, 5 min 2 sec, ~2-2.5 ml, 0.01 M phosphate pH 7.4) it was 3%. Also, the “% loss” value in data set [1] (12% v/v PG, silicone tube, 2 min 23 sec, ~1-1.5 ml, 0.01 M phosphate pH 7.4) is on record as 30%; in data set [1] (12% v/v PG, syringe, 1 min 4 sec, 9.5 ml, 0.01 M phosphate pH 7.4, 75 μg Compound 1) it was 0%. For the same compound, the “% Loss Compound 1” value is 63% in data set [2] (Experiment 1: 0.8 × 4.0 Pt-cured silicone tubing, polysorbate 80 0 v/v %, 2 min 0 sec, 350 μl); 41% in data set [2] (Experiment 2: 1.6 × 4.8 Pt-cured silicone tubing, polysorbate 80 0 v/v %, 2 min 7 sec, 1400 μl); 45% in data set [2] (Experiment 3: 1.6 × 4.8 Perox-cured silicone tubing, polysorbate 80 0 v/v %, 2 min 6 sec, 1400 μl); 0% in data set [2] (Experiment 4: 0.8 × 4.0 Pt-cured silicone tubing, polysorbate 80 1 v/v %, 2 min 3 sec, 350 μl); 1% in data set [2] (Experiment 5: 1.6 × 4.8 Pt-cured silicone tubing, polysorbate 80 1 v/v %, 2 min 10 sec, 1400 μl); 0% in data set [2] (Experiment 6: 1.6 × 4.8 Perox-cured silicone tubing, polysorbate 80 1 v/v %, 2 min 4 sec, 1400 μl). For the same compound, the “% Loss Compound 1” value is 0% in data set [2] (Experiment 7: 0.8 × 4.0 Pt-cured silicone tubing, polysorbate 80 5 v/v %, 2 min 2 sec, 350 μl); 1% in data set [2] (Experiment 8: 1.6 × 4.8 Pt-cured silicone tubing, polysorbate 80 5 v/v %, 2 min 4 sec, 1400 μl); 1% in data set [2] (Experiment 9: 1.6 × 4.8 Perox-cured silicone tubing, polysorbate 80 5 v/v %, 2 min 1 sec, 1400 μl).
